For assay [1], the system named is PA14 strains evolved in the presence of an AMP/RPM. Description: Fitness cost of evolved strains (growth curves in the absence of AMPs). It is filed as cell-based, Pseudomonas aeruginosa. To be noted: growth in MH broth without AMPs, OD595 every 15 min for 24 h, normalised to ancestor; n = 6. How it is done: Bacterial cells were grown overnight in MH broth and then diluted to an OD595 of 0.1. For each strain, 200 μl of culture were transferred into 96-well plates, with 3 technical replicates. Optical density (OD595) was measured every 15 min for 24 h using an Epoch 2 microplate reader (BioTek). Lag time and Vmax were assessed using the plate reader software (Gen5). The values measured in the experimentally evolved strains were divided by the values of their respective ancestors and expressed as lag time fold-change and Vmax fold-change (see “Statistical analysis” section).
Similarly, we normalised both fitness readouts duration of the lag phase (lag time) and maximum slope of the bacterial growth curve (Vmax) to the readouts of the ancestor of the given evolved strain by dividing the values of the evolved strains to that of their respective ancestors. The resulting variable is a fold-change in Vmax and lag time during experimental evolution: Vmax fold-change and lag time fold-change.

Assay [2] has as its system P. aeruginosa 14 strain (PA14), ancestor strain. It is filed as cell-based, Pseudomonas aeruginosa. The settings on record: ancestral strain PA14; MH broth, 5 × 10^5 CFU/ml, 96-well serial dilution, 24 h, inhibition of growth by at least 90% (OD595); 3 replicate lines per peptide. How it is done: MIC values were determined following a standard serial dilution protocol, as described elsewhere. Briefly, PA14 cells were grown overnight in MH broth, at 37°C and 200 rpm. Subsequently, cells were diluted 1:100 in MH broth and grown until reaching an optical density at 595 nm (OD595) of 0.1. Then, 100 μl of 5 × 10^5 CFU/ml were inoculated into each well in 96-well plates that contained a serial dilution of AMPs or RPMs. Each plate contained 3 replicate lines per peptide. The MICs were defined as the lowest concentration at which there was inhibition of bacterial growth by at least 90%, after 24 h, by measuring the OD595.
The MIC was determined on 3 occasions: (1) prior to the experiment, to determine the concentration of our focal peptides to be used at the start of the experimental evolution (i.e., MIC of the ancestor strain); (2) at the end of the experimental evolution, detect an increase, or decrease, in the resistance of the experimentally evolved strains to our peptides of interest; (3) to evaluate whether the experimental evolution of a certain treatment was accompanied by an increase, or decrease, in resistance or sensitivity to another antimicrobial (i.e., cross-resistance or collateral-sensitivity).

Here are results for two substances from PMC11218975, “The evolution of antimicrobial peptide resistance in Pseudomonas aeruginosa is severely constrained by random peptide mixtures” (PLOS Biology, 2024).

Where no end group is shown, it is not given here.

Consider “p-KKKFK [SLM3, specific palmitic acid-modified 5-mer peptide, composed of L-Lysine and/or L-Phenylalanine, part of a 32-peptide library]”, for which the “Lag time fold-change of evolved strains compared to control strains” value in assay [1] is recorded as “significantly increased lag times”.

Take KIAKRIWKILRRR [PA-13]: the MIC in assay [2] amounted to 25 µg/mL.

What is called MIC is the lowest concentration found to suppress growth.
